Ten molecules from ChEMBL document CHEMBL1150102, “Chemical constituents of halophilic facultatively anaerobic bacteria, 1” (J Nat Prod, 1995) can be followed below.

A word on the IC50: it is the midpoint of a concentration-inhibition curve. Read a low IC50 as greater potency.

≈ marks a conversion by molar mass, not a printed value. Calls of active or inactive are those of the source. The calls are words filed in the database; no cut-off is given here.

In one experiment the test system is P388. Briefly: Cytotoxicity against mouse P388 cells. Format: functional, cell-based.
`CC(C)C(=O)NCCc1ccc(O)c([N+](=O)[O-])c1` showed an IC50 of 3 µg/mL (≈ 11.9 µM).

Tested on in a further experiment: not listed separately
Briefly: Inhibition of tyrosin kinase pp60src.
Take `CC(C)C(=O)NCCc1ccc(O)c([N+](=O)[O-])c1`: the outcome was inactive.

For `O=C(O)c1c[nH]c2ccccc12`, the outcome was inactive.

For `N#Cc1c[nH]c2ccccc12`, the result was inactive.

For `O=C(O)Cc1ccc(O)c([N+](=O)[O-])c1`, the outcome was inactive.

Turning to `O=Cc1c[nH]c2ccccc12`, the outcome was inactive.

`CC(C)CC(=O)NCCc1ccc(O)c([N+](=O)[O-])c1`: the result was inactive.

For the molecule `O=C(O)Cc1ccccc1`, the outcome was inactive.

`CC(C)CC(=O)NCCc1ccc(OC(=O)CC(C)C)c([N+](=O)[O-])c1`: the outcome was inactive.

In the case of `CC(C)C(=O)NCCc1ccc(OC(=O)C(C)C)c([N+](=O)[O-])c1`, the result was inactive.

Take `COC(=O)Cc1ccc(OC)c([N+](=O)[O-])c1`: the outcome was inactive.
